From US20230405003A1, “APPLICATION OF THYMIDINE DERIVATIVE IN PREPARATION OF DRUGS” (ONQUALITY PHARMACEUTICALS CHINA LTD., priority 2020, published 2023)

What was measured:
[1] = system: human colon cancer cell HCT116 xenograft; assay: Effect of thymidine derivative gel on therapeutical effect of capecitabine, HCT116 xenograft nude mice; assay type: in vivo, mouse; conditions: oral capecitabine 1.5 mmol/kg, 0.5% or 2% T1 gel on the back once per day, 14 days
Method: A BALB/C nude mouse (human colon cancer cell HCT116 xenograft) model was established. After the model was stable, the model mice were divided into four groups (in which the average tumor size of each of the 4 groups was kept as consistent as possible). Except the blank group (containing 5 mice), there were 10 mice in each group, which were subject to gavage and application experiments.
Capecitabine was dissolved in a mixed solution of castor oil:ethanol=1:1 (volume ratio). Prior to gavage, the mixture was diluted with PBS to the desired concentration (diluted for about 3 times with PBS solution). […]
A: Group of blank: 5 mice with tumors, no gavage and no drug application; B: blank group: 10 mice with tumors, oral gavage with capecitabine (1.5 mmol/kg), application with blank gel on the back (once per day for 14 days); C: 0.5% T1 group: 10 mice with tumors, oral gavage of capecitabine, application with 0.5% T1 gel (administration method and frequency are the same as those in group B); D: 2% T1 gel group: 10 mice with tumors, oral gavage of capecitabine, application of 2% T1 gel (administration method and frequency are the same as those in group B). […] The tumor size was measured and recorded every 2 days. After 14 days of the experiment, the mice were dissected to take out the tumor, which was weighed and recorded.

[2] = system: hand-foot syndrome caused by Doxorubicin in rats; assay: Rat model of hand-foot syndrome caused by doxorubicin, gel application; assay type: in vivo; conditions: Doxorubicin 7 mg/kg tail intravenous injection once every three days for 20 days, gel 3 wt%, 30 days
Method: (§1) After SD rats were fed and adapted for one week (about 200 g), the rats were divided into groups, with 10 rats in each group. Then, the rats were subject to gavage administration. Capecitabine was dissolved in a 1:1 mixed solution of castor oil and ethanol and diluted for three times with PBS buffer. After gavage, the rats were fixed with a fixed cylinder, and a gel of thymidine derivative (or a compounded gel of thymidine derivative and uridine derivative) was applied to double hind paws (about 1 cm*3 cm) of the rats in group of administration (the types and concentrations are shown in Table 4), and a blank gel was applied to the group of blank (as a blank control). After approximately 4 hours of application, the rats were released after 4 hours, wiped with clean water to remove any residual drug at the application site, and allowed back to the cage. The thymidine derivative gel (or the compounded gel of thymidine derivative and uridine derivative) was administered with gavage every day. The gavage and application tests are repeated daily until the group of blank has developed obvious hand-foot syndrome.
(§2) The effects of thymidine derivative or a combination of thymidine derivative and uridine derivative on the chemotherapeutic drug-induced hand-foot syndrome in a rat model were tested according to the method in Examples 30-40. At the same time, paws of rats after treatment with the drug were taken and observed for their inflammation by hematoxylin-eosin staining (HE) and immunohistochemical staining (IHC).
(§3) The test thymidine derivative or the combination of thymidine derivative and uridine derivative, as well as the final concentration of the test compounds were shown in Table 8. Table 8 lists the animal experiment combination of a chemotherapeutical drug and the thymidine derivative gel (or the compound gel of thymidine derivative and uridine derivative) and the corresponding experimental results (wherein, the data in the column of control rate=the occurrence rate of hand-foot syndrome in Group of blank—the occurrence rate of hand-foot syndrome in Group of administration).

[3] = system: hand-foot syndrome caused by Cytarabine in rats; assay: Rat model of hand-foot syndrome caused by cytarabine, gel application; assay type: in vivo; conditions: Cytarabine 120 mg/kg twice per day, 30 days
Method: as §1, §2, §3

[4] = system: 5-FU-induced diarrhea in Balb/c mice; assay: 5-FU-induced diarrhea mouse model (175 mg/kg single i.p.); assay type: in vivo; conditions: 5-FU 175 mg/kg single i.p.; for Survival Rate / Average Diarrhea Grade: 6 days; for Average Diarrhea Grade: score 0-4
Method: 7-8-week-old male Balb/c mice were used to establish a 5-FU induced diarrhea model to test the effect of the thymidine derivative or the combination of thymidine derivative and uridine derivative on the relief of diarrhea.
Modeling dose of 5-Fu: 175 mg/kg; single administration, intraperitoneal injection (ip.);
Administration mode of the compound to test (thymidine derivative or combination of thymidine derivative and uridine derivative): single administration, by gavage, advance administration of the compound to test at various time points prior to intraperitoneal injection of 5-FU. The compound to test was administered 1 h prior to the administration of 5-FU, a certain amount of 5-FU was injected intraperitoneally 1 h later, and the compound to test was administered once again 7 h after the injection of 5-FU.
The mice were fed and adapted for one week, and then divided into groups, with 10 mice in each group for administration test.
The mice in the Group of blank was injected with 0.9% NaCl, and evaluated the effect by observing the change of diarrhea grade, food uptake, and weight change. The severity of diarrhea was scored in accordance with the following standards: 0: normal feces, 1: soft feces, 2: slightly wet, soft feces, 3: wet, unformed feces, with moderate coloration in perianal region, 4: watery feces with heavy coloration of hair in perianal region. The severity of diarrhea was evaluated by occurrence scores of various grades of diarrhea (Scores 0 to 4) and average score of diarrhea. […] The models were stable, and satisfied the experimental requirements.
5-FU was dissolved in a 0.9% NaCl solution, the mice in the model group and the treatment group were all i.p. injected at a dose of 175 mg/kg/d, […]. While modeling of injection administration of 5-FU, the thymidine derivative or the combination of thymidine derivative and uridine derivative was administered by gavage, and the compounds to test were dissolved in a PBS solution containing 5% DMSO+1% HPMC. Body weight was weighed daily to count the weight change (Δ % BW, the weight changes recorded in the table were the values on Day 6), and the food was weighed daily to calculate the food uptake. The mice were daily observed for their clinical status, e.g., activity, diarrhea, hair, fighting, etc. After 6 days, the experiments were completed and statistically analyzed for the results.

## CC(=O)OCC1OC(n2cc(C)c(=O)[nH]c2=O)CC1OC(C)=O (stereo not shown) [T1]
[1]
  tumor volume with T1 gel versus blank gel: close to or slightly smaller than that of Group of blank gel

## COc1ccc2cc([C@H](C)C(=O)OC[C@H]3O[C@@H](n4cc(C)c(=O)[nH]c4=O)C[C@@H]3O)ccc2c1 [T25]
[2]
  Control Rate Forepaws: 37.50%
  Control Rate Hindpaws: 62.50%
[3]; gel 3 wt%
  Control Rate Forepaws: 42.86%
  Control Rate Hindpaws: 57.14%

## Cc1cn([C@H]2C[C@H](O)[C@@H](COC(=O)[C@H](C)c3ccc(CC(C)C)cc3)O2)c(=O)[nH]c1=O [T32]
[3]; gel 2 wt%
  Control Rate Forepaws: 33.33%
  Control Rate Hindpaws: 33.33%

## Cc1ccc(C(=O)c2ccc(CC(=O)OC[C@H]3O[C@@H](n4cc(C)c(=O)[nH]c4=O)C[C@@H]3O)n2C)cc1 [T36]
[4]; 50 mpk gavage
  Δ % BW (on Day 6): 2.25% ± 0.54%
  Survival Rate: 100%
  Average Diarrhea Grade: 1.6

## Cc1ccc(C(=O)c2ccc(CC(=O)O[C@H]3C[C@H](n4cc(C)c(=O)[nH]c4=O)O[C@@H]3CO)n2C)cc1 [T45]
[4]; 15 mpk gavage
  Δ % BW (on Day 6): −0.34% ± 0.36%
  Survival Rate: 100%
  Average Diarrhea Grade: 1.4

## Cc1cn([C@H]2C[C@H](OC(=O)C(C)c3cccc(C(=O)c4ccccc4)c3)[C@@H](CO)O2)c(=O)[nH]c1=O (stereo partly shown) [T50]
[4]; 50 mpk gavage
  Δ % BW (on Day 6): 2.08% ± 0.86%
  Survival Rate: 100%
  Average Diarrhea Grade: 1.1
